Test results: patent US7579342B2, “Pteridine compounds for the treatment of psoriasis” (AstraZeneca, priority 2000, dated 2009)

First: O=c1cnc2c(NC(CO)CO)nc(SCc3cccc(Cl)c3F)nc2[nH]1 [Example 8, 2-[[(3-Chloro-2-fluorophenyl)methyl]thio]-4-[[2-hydroxy-1-(hydroxymethyl)ethyl]amino]-7(8H)-pteridinone]
Second: C[C@H](CO)Nc1nc(SCc2cccc(Cl)c2F)nc2[nH]c(=O)cnc12 [Example 6, 2-[[(3-Chloro-2-fluorophenyl)methyl]thio]-4-[[(1R)-2-hydroxy-1-methylethyl]amino]-7(8H)-pteridinone]
The melting point of the first is higher: 218.5 to 220.5 °C for the first, 209 to 211 °C for the second.

First: O=c1cnc2c(NC(CO)CO)nc(SCc3cccc(C(F)(F)F)c3F)nc2[nH]1 [Example 31, 2-[[(2-Fluoro-3-(trifluoromethyl)phenyl)methyl]thio]-4-[[2-hydroxy-1-(hydroxymethyl)ethyl]amino]-7(8H)-pteridinone]
Second: C[C@H](CO)Nc1nc(SCc2cccc(C(F)(F)F)c2F)nc2[nH]c(=O)cnc12 [Example 30, 2-[[(2-Fluoro-3-(trifluoromethyl)phenyl)methyl]thio]-4-[[(1R)-2-hydroxy-1-methylethyl]amino]-7(8H)-pteridinone]
The melting point of the first is higher: 244 to 245 °C for the first, 217 to 219 °C for the second.

First: COc1ccc(CSc2nc(NC(CO)CO)c3ncc(=O)[nH]c3n2)cc1Cl [Example 11, 2-[[(3-Chloro-4-methoxyphenyl)methyl]thio]-4-[[2-hydroxy-1-(hydroxymethyl)ethyl]amino]-7(8H)-pteridinone]
Second: O=c1cnc2c(NC(CO)CO)nc(SCc3cccs3)nc2[nH]1 [Example 28, 4-[[-2-Hydroxy-1-(hydroxymethyl)ethyl]amino]-2-[(2-thienylmethyl)thio]-7(8H)-pteridinone]
The melting point of the first is lower: 209 to 211 °C for the first, 220 to 223 °C for the second.

First: C[C@H](CO)Nc1nc(SCc2ccccc2F)nc2[nH]c(=O)cnc12 [Example 25, 2-[[(2-Fluorophenyl)methyl]thio]-4-[[(1R)-2-hydroxy-1-methylethyl]amino]-7(8H)-pteridinone]
Second: C[C@H](CO)Nc1nc(SCc2cccs2)nc2[nH]c(=O)cnc12 [Example 26, 4-[[(1R)-2-Hydroxy-1-methylethyl]amino]-2-[[(2-thienyl)methyl)thio]-7(8H)-pteridinone]
The melting point of the first is lower: 203 to 205 °C for the first, 209 to 212 °C for the second.

First: O=c1cnc2c(NCCO)nc(SCc3cccc(C(F)(F)F)c3F)nc2[nH]1 [Example 32, 2-[[(2-Fluoro-3-(trifluoromethyl)phenyl)methyl]thio]-4-[(2-hydroxyethyl)amino]-7(8H)-pteridinone]
Second: O=c1cnc2c(NCCO)nc(SCc3cccc(Cl)c3F)nc2[nH]1 [Example 7, 2-[[(3-Chloro-2-fluorophenyl)methyl]thio]-4-[(2-hydroxyethyl)amino]-7(8H)-pteridinone]
The melting point of the first is higher: 221 to 222 °C for the first, 195 to 196.5 °C for the second.

First: Cc1ccc(CSc2nc(N[C@H](C)CO)c3ncc(=O)[nH]c3n2)o1 [Example 24, 4-[[(1R)-2-Hydroxy-1-methylethyl]amino]-2-[[(5-methyl-2-furanyl)methyl]thio]-7(8H)-pteridinone]
Second: C[C@H](CO)Nc1nc(SCc2ccno2)nc2[nH]c(=O)cnc12 [Example 22, 4-[[(1R)-2-Hydroxy-1-methylethyl]amino]-2-[(5-isoxazolylmethyl)thio]-7(8H)-pteridinone]
The melting point of the first is higher: 197 to 199 °C for the first, 191 to 194 °C for the second.
